Experimental data published in ChEMBL document CHEMBL3351497, “Structure Activity Relationships of αv Integrin Antagonists for Pulmonary Fibrosis by Variation in Aryl Substituents” (ACS Med Chem Lett, 2014).

What was measured:
[1] = biological target: T1, Integrin alpha-V/beta-6 (Homo sapiens, UniProt P06756+P18564); experiment: Inhibition of integrin alphavbeta6 (unknown origin) by Merck AG cell assay; assay type: cell-based
[2] = biological target: T1, Integrin alpha-V/beta-6; experiment: Inhibition of integrin alphavbeta6 (unknown origin)-mediated K562 cell adhesion to LAPb1 coated surface by fluorescence analysis; assay type: cell-based
[3] = biological target: T2, Integrin alpha-V/beta-3 (Homo sapiens, UniProt P05106+P06756); experiment: Inhibition of integrin alphavbeta3 (unknown origin)-mediated K562 cell adhesion to LAPb1 coated surface by fluorescence analysis; assay type: cell-based
[4] = Lipophilicity, log D of the compound by HPLC chromatographic method; assay type: physicochemical
[5] = biological target: Integrin alpha-V/beta-8 (Homo sapiens, UniProt P06756+P26012); experiment: Inhibition of integrin alphavbeta8 (unknown origin)-mediated K562 cell adhesion to LAPb1 coated surface by fluorescence analysis; assay type: cell-based
[6] = biological target: Integrin alpha-V/beta-5 (Homo sapiens, UniProt P06756+P18084); experiment: Inhibition of integrin alphavbeta5 (unknown origin)-mediated K562 cell adhesion to vitronectin coated surface by fluorescence analysis; assay type: cell-based
[7] = test system: K562; experiment: Selectivity ratio of IC50 for integrin alphavbeta8 (unknown origin)-mediated K562 cell adhesion to LAPb1 coated surface to IC50 for integrin alphavbeta5 (unknown origin)-mediated K562 cell adhesion to vitronectin coated surface; assay type: cell-based; conditions: Homo sapiens
[8] = test system: K562; experiment: Selectivity ratio of IC50 for integrin alphavbeta8 (unknown origin)-mediated K562 cell adhesion to LAPb1 coated surface to IC50 for integrin alphavbeta3 (unknown origin)-mediated K562 cell adhesion to LAPb1 coated surface; assay type: cell-based; conditions: Homo sapiens
[9] = test system: K562; experiment: Selectivity ratio of IC50 for integrin alphavbeta6 (unknown origin)-mediated K562 cell adhesion to LAPb1 coated surface to IC50 for integrin alphavbeta5 (unknown origin)-mediated K562 cell adhesion to vitronectin coated surface; assay type: cell-based; conditions: Homo sapiens
[10] = test system: K562; experiment: Selectivity ratio of IC50 for integrin alphavbeta6 (unknown origin)-mediated K562 cell adhesion to LAPb1 coated surface to IC50 for integrin alphavbeta3 (unknown origin)-mediated K562 cell adhesion to LAPb1 coated surface; assay type: cell-based; conditions: Homo sapiens
[11] = biological target: T2, Integrin alpha-V/beta-3; experiment: Inhibition of integrin alphavbeta3 (unknown origin) by Merck binding assay; assay type: protein-complex assay

T2 sequence (P05106 27-788 limits assumed): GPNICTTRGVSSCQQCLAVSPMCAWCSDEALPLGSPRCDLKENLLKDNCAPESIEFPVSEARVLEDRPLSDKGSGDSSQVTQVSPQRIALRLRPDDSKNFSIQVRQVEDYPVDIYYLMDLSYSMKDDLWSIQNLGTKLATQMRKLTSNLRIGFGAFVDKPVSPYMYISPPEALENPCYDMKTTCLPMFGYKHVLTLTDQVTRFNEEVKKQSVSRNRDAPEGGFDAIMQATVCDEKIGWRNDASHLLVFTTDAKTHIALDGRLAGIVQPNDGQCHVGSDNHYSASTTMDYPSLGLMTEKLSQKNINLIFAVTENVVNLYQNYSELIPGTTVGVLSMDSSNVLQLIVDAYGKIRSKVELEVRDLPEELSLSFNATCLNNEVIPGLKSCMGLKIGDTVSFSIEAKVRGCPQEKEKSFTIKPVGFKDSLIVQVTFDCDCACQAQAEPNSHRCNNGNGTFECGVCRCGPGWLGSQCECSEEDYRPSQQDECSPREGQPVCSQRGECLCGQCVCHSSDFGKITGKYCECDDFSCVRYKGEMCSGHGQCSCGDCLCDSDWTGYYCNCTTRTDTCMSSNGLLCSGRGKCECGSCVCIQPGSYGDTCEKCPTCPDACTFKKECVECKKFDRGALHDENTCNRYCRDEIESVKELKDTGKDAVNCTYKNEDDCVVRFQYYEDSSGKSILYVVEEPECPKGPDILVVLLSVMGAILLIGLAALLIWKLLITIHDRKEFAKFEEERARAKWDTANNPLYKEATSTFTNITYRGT
T2 sequence (P06756 31-889 limits assumed): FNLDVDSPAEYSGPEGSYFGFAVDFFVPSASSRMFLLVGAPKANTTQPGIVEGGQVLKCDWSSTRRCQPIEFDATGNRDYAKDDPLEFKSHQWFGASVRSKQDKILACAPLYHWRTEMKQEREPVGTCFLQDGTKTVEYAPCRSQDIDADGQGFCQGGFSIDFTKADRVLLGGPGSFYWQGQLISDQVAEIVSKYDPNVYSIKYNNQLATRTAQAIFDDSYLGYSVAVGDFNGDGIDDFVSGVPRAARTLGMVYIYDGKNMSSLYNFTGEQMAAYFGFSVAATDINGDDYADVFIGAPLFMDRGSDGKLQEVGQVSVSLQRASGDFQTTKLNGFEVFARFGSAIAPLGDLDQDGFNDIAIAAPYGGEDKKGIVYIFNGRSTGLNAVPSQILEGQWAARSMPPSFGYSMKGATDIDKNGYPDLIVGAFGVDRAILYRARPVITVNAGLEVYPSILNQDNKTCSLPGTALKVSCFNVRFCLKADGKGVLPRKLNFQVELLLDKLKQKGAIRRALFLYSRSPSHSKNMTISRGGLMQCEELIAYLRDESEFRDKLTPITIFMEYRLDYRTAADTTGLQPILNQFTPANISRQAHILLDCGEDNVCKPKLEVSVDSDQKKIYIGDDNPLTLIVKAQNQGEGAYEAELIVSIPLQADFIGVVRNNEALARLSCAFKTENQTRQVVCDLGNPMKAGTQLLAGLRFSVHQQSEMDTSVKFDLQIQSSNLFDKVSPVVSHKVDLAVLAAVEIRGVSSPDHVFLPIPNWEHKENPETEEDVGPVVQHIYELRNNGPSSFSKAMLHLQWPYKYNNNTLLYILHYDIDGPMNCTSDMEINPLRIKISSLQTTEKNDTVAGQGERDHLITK
T2 sequence (P06756 891-1048 limits assumed): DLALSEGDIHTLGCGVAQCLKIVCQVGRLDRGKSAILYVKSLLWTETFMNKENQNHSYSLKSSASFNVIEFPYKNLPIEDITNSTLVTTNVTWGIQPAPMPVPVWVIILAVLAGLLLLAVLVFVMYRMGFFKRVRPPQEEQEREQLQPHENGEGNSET
Sequence of Integrin alpha-V/beta-5 (P06756 31-889 limits assumed): as the sequence (P06756 31-889 limits assumed) above
Sequence of Integrin alpha-V/beta-5 (P06756 891-1048 limits assumed): as the sequence (P06756 891-1048 limits assumed) above
Sequence of Integrin alpha-V/beta-5 (P18084 24-799 limits assumed): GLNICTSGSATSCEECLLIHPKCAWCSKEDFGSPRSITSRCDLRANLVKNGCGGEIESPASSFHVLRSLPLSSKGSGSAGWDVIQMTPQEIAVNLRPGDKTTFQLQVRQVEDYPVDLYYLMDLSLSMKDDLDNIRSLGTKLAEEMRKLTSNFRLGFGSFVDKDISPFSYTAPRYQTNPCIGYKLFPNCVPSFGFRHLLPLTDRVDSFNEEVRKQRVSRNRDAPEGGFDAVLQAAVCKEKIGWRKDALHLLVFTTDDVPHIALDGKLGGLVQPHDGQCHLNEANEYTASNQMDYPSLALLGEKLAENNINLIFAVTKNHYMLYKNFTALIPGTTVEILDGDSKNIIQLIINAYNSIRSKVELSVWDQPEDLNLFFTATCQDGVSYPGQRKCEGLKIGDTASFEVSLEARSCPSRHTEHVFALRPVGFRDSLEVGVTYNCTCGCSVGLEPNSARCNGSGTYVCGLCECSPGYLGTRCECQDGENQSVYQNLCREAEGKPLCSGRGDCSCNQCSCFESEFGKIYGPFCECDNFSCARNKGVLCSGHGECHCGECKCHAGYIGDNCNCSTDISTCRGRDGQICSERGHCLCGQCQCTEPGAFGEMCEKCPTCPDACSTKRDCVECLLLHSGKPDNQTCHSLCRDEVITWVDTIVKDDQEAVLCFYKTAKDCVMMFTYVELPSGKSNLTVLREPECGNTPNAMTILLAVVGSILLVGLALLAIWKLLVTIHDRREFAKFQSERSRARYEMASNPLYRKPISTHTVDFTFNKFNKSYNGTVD
T1 sequence (P06756 31-889 limits assumed): as the sequence (P06756 31-889 limits assumed) above
T1 sequence (P06756 891-1048 limits assumed): as the sequence (P06756 891-1048 limits assumed) above
T1 sequence (P18564 22-788 limits assumed): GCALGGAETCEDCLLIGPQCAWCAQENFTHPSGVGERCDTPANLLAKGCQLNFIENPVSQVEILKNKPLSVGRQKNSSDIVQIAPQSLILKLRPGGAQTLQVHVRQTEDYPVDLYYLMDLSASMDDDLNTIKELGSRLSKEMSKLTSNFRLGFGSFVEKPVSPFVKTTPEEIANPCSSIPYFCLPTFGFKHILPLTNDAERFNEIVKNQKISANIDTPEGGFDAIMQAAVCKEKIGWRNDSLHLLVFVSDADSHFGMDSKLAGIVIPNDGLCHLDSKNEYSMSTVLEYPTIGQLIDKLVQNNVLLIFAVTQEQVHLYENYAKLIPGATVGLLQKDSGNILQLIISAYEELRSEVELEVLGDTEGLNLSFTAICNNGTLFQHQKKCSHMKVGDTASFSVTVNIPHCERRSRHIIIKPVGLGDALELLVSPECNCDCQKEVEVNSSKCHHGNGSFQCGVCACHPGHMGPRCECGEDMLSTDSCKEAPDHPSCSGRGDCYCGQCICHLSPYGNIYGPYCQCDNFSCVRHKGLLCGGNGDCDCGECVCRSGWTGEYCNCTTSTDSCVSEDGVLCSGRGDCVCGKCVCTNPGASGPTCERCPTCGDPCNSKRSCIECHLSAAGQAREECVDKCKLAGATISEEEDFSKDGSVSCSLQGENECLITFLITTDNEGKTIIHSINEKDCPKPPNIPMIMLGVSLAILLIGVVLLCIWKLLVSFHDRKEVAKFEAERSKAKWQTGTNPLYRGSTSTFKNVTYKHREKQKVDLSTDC
Sequence of Integrin alpha-V/beta-8 (P06756 31-889 limits assumed): as the sequence (P06756 31-889 limits assumed) above
Sequence of Integrin alpha-V/beta-8 (P06756 891-1048 limits assumed): as the sequence (P06756 891-1048 limits assumed) above
Sequence of Integrin alpha-V/beta-8 (P26012 43-769 limits assumed): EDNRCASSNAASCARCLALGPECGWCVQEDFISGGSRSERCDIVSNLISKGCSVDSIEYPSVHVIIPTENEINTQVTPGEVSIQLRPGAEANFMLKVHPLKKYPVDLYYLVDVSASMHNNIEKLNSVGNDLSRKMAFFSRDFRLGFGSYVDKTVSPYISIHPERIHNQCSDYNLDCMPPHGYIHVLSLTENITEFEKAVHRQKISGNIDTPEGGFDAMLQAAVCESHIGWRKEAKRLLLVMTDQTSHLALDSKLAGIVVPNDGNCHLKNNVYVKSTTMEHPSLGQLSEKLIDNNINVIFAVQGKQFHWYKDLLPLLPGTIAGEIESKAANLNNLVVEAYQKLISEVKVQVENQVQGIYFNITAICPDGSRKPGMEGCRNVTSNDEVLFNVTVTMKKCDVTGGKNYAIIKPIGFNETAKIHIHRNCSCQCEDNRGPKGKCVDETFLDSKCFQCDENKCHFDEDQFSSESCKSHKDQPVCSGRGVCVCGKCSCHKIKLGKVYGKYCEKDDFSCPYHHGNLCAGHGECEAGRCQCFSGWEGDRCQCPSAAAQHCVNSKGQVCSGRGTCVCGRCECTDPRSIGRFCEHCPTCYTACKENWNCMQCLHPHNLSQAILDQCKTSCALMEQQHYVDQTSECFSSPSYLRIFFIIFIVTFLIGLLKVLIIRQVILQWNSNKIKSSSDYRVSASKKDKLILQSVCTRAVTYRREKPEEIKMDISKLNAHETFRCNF

SMILES	IC50 [1]	IC50 [2]	IC50 [3]	chromatographic logD [4]	IC50 [5]	IC50 [6]	Ratio IC50 [7]	Ratio IC50 [8]	Ratio IC50 [9]	Ratio IC50 [10]	IC50 [11]	logD [4]
O=C(O)C[C@H](NC(=O)C(COCc1ccccc1)NC(=O)CCCCNc1ccccn1)c1cc(Cl)cc(Cl)c1 (stereo not given in full)	200 nM	1000 nM	–	–	–	–	–	–	–	–	–	–
N=C(N)Nc1cccc(C(=O)NCC(=O)NC(CC(=O)O)c2cc(Cl)cc(Cl)c2)c1 (stereo not given)	–	158 nM	–	–	–	–	–	–	–	–	–	–
O=C(O)C[C@H](NC(=O)CCCCc1ccc2c(n1)NCCC2)c1cccc(C(F)(F)F)c1	–	79.4 nM	100 nM	2.72	126 nM	63.1 nM	–	–	–	–	–	–
O=C(O)C[C@@H](NC(=O)CCCCc1ccc2c(n1)NCCC2)c1cccc(C(F)(F)F)c1	–	6310 nM	> 10000 nM	2.61	> 10000 nM	2000 nM	–	–	–	–	–	–
O=C(O)CC(NC(=O)CCCCc1ccc2c(n1)NCCC2)c1ccc(Cl)cc1 (racemic)	–	398 nM	126 nM	2.14	631 nM	126 nM	–	–	–	–	–	–
O=C(O)CC(NC(=O)CCCCc1ccc2c(n1)NCCC2)c1ccccc1 (racemic)	–	2000 nM	100 nM	1.56	794 nM	79.4 nM	10	10	10	10	–	–
O=C(O)CC(NC(=O)CCCCc1ccc2c(n1)NCCC2)c1ccccc1F (racemic)	–	1000 nM	316 nM	1.88	3980 nM	100 nM	–	–	–	–	–	–
O=C(O)CC(NC(=O)CCCCc1ccc2c(n1)NCCC2)c1ccccc1Cl (racemic)	–	> 10000 nM	2000 nM	1.92	> 10000 nM	1580 nM	–	–	–	–	–	–
Cc1ccccc1C(CC(=O)O)NC(=O)CCCCc1ccc2c(n1)NCCC2 (racemic)	–	398 nM	50.1 nM	1.85	1260 nM	20 nM	–	–	–	–	–	–
COc1ccccc1C(CC(=O)O)NC(=O)CCCCc1ccc2c(n1)NCCC2 (racemic)	–	> 10000 nM	501 nM	1.83	> 10000 nM	501 nM	–	–	–	–	–	–
O=C(O)CC(NC(=O)CCCCc1ccc2c(n1)NCCC2)c1cccc(F)c1 (racemic)	–	794 nM	31.6 nM	1.92	1580 nM	15.8 nM	10	10	10	10	23 nM	–
O=C(O)CC(NC(=O)CCCCc1ccc2c(n1)NCCC2)c1cccc(Cl)c1 (racemic)	–	251 nM	79.4 nM	2.3	501 nM	25.1 nM	–	–	–	–	–	–
Cc1cccc(C(CC(=O)O)NC(=O)CCCCc2ccc3c(n2)NCCC3)c1 (racemic)	–	398 nM	158 nM	1.95	631 nM	50.1 nM	–	–	–	–	–	–
COc1cccc(C(CC(=O)O)NC(=O)CCCCc2ccc3c(n2)NCCC3)c1 (racemic)	–	316 nM	39.8 nM	1.66	501 nM	63.1 nM	10	10	10	10	–	–
O=C(O)CC(NC(=O)CCCCc1ccc2c(n1)NCCC2)c1ccc(F)cc1 (racemic)	–	501 nM	100 nM	1.75	501 nM	63.1 nM	–	–	–	–	–	–
Cc1ccc(C(CC(=O)O)NC(=O)CCCCc2ccc3c(n2)NCCC3)cc1 (racemic)	–	794 nM	39.8 nM	1.97	1000 nM	100 nM	–	–	–	–	–	–
COc1ccc(C(CC(=O)O)NC(=O)CCCCc2ccc3c(n2)NCCC3)cc1 (racemic)	–	501 nM	25.1 nM	1.64	501 nM	50.1 nM	10	10	10	10	–	–
N#Cc1ccc(C(CC(=O)O)NC(=O)CCCCc2ccc3c(n2)NCCC3)cc1 (racemic)	–	398 nM	79.4 nM	1.47	794 nM	398 nM	–	–	–	–	–	–
O=C(O)CC(NC(=O)CCCCc1ccc2c(n1)NCCC2)c1ccc(C(F)(F)F)cc1 (racemic)	–	631 nM	251 nM	2.72	794 nM	316 nM	–	–	–	–	–	–

SMILES	IC50 [1]	IC50 [2]	IC50 [3]	chromatographic logD [4]	IC50 [5]	IC50 [6]	Ratio IC50 [7]	Ratio IC50 [8]	Ratio IC50 [9]	Ratio IC50 [10]	IC50 [11]	logD [4]
O=C(O)CC(NC(=O)CCCCc1ccc2c(n1)NCCC2)c1ccc(OC(F)(F)F)cc1 (racemic)	–	631 nM	158 nM	2.85	794 nM	501 nM	–	–	–	–	–	–
CS(=O)(=O)c1ccc(C(CC(=O)O)NC(=O)CCCCc2ccc3c(n2)NCCC3)cc1 (racemic)	–	631 nM	126 nM	1.08	794 nM	398 nM	–	–	–	–	–	–
O=C(O)CC(NC(=O)CCCCc1ccc2c(n1)NCCC2)c1ccc(-c2ccccc2)cc1 (racemic)	–	398 nM	100 nM	3.1	316 nM	631 nM	–	–	–	–	–	–
N#Cc1cccc(C(CC(=O)O)NC(=O)CCCCc2ccc3c(n2)NCCC3)c1 (racemic)	–	251 nM	200 nM	1.67	1000 nM	39.8 nM	–	–	–	–	–	–
O=C(O)CC(NC(=O)CCCCc1ccc2c(n1)NCCC2)c1cccc(C(F)(F)F)c1 (racemic)	–	100 nM	200 nM	2.73	158 nM	39.8 nM	–	–	–	–	–	–
O=C(O)CC(NC(=O)CCCCc1ccc2c(n1)NCCC2)c1cccc(OC(F)(F)F)c1 (racemic)	–	200 nM	398 nM	3.11	251 nM	79.4 nM	–	–	–	–	–	–
O=C(O)CC(NC(=O)CCCCc1ccc2c(n1)NCCC2)c1cccc(Cl)c1Cl (racemic)	–	7940 nM	3980 nM	2.73	10000 nM	501 nM	–	–	–	–	–	–
O=C(O)CC(NC(=O)CCCCc1ccc2c(n1)NCCC2)c1ccc(Cl)c(Cl)c1 (racemic)	–	200 nM	50.1 nM	2.62	200 nM	100 nM	–	–	–	–	–	–
O=C(O)CC(NC(=O)CCCCc1ccc2c(n1)NCCC2)c1cc(Cl)cc(Cl)c1 (racemic)	–	251 nM	398 nM	2.93	251 nM	200 nM	–	–	–	–	–	–
Cc1ccc(C(CC(=O)O)NC(=O)CCCCc2ccc3c(n2)NCCC3)cc1C (racemic)	–	200 nM	63.1 nM	2.29	501 nM	63.1 nM	–	–	–	–	–	–
O=C(O)CC(NC(=O)CCCCc1ccc2c(n1)NCCC2)c1ccc2c(c1)CCC2 (racemic)	–	158 nM	126 nM	2.52	398 nM	79.4 nM	–	–	–	–	–	–
Cc1cc(C)cc(C(CC(=O)O)NC(=O)CCCCc2ccc3c(n2)NCCC3)c1 (racemic)	–	501 nM	398 nM	2.43	631 nM	398 nM	–	–	–	–	–	–
COc1ccc(C(CC(=O)O)NC(=O)CCCCc2ccc3c(n2)NCCC3)cc1OC (racemic)	–	316 nM	100 nM	1.37	398 nM	63.1 nM	–	–	–	–	–	–
O=C(O)CC(NC(=O)CCCCc1ccc2c(n1)NCCC2)c1ccc2c(c1)OCO2 (racemic)	–	251 nM	15.8 nM	1.47	794 nM	12.6 nM	–	–	–	–	–	–
O=C(O)CC(NC(=O)CCCCc1ccc2c(n1)NCCC2)c1ccc(Cl)c(C(F)(F)F)c1 (racemic)	–	100 nM	316 nM	3.1	251 nM	126 nM	–	–	–	–	–	–
O=C(O)CC(NC(=O)CCCCc1ccc2c(n1)NCCC2)c1ccc(Cl)c(C(F)(F)F)c1 (single isomer, unassigned; enantiomer 1)	–	63.1 nM	158 nM	–	126 nM	63.1 nM	–	–	–	–	–	3.28
O=C(O)CC(NC(=O)CCCCc1ccc2c(n1)NCCC2)c1cc(Cl)cc(Cl)c1 (single isomer, unassigned; enantiomer 2)	–	158 nM	126 nM	–	100 nM	251 nM	–	–	–	–	–	2.8
O=C(O)CC(NC(=O)CCCCc1ccc2c(n1)NCCC2)c1ccc(Cl)c(C(F)(F)F)c1 (single isomer, unassigned; enantiomer 2)	–	> 10000 nM	1580 nM	–	> 10000 nM	631 nM	–	–	–	–	–	3.25
O=C(O)CC(NC(=O)CCCCc1ccc2c(n1)NCCC2)c1cc(Cl)cc(Cl)c1 (stereo in doubt; 37E1)	–	6310 nM	> 10000 nM	–	> 10000 nM	1000 nM	–	–	–	–	–	2.97
